Reference: patent publication US20260042764A1, “COMPOSITIONS AND METHODS FOR INHIBITION OF KRAS” (TheRas, Inc., priority 2022, published 2026)

Key:
[1] = biological target: T1, Avi-KRAS WT (1-169) GppNHp/RAF1 RBD-3xFLAG (52-151) (Homo sapiens, UniProt P01116); experiment: Raf1-KRAS WT-GppNHP disruption HTRF assay (Biological Example 1); type: binding
T1 construct: Avi-KRAS WT (1-169)
How it was run: (§1)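 Protein mix, 1 h RT, 700 rpm; reagent mix, 1 h RT, 700 rpm; HTRF read. Buffer Tris pH 7.5/NaCl/MgCl2/BSA/Tween, 10% DMSO. Output % activity, DMSO = 100%.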

[2] = biological target: T2, Avi-KRAS G12R (1-169) GppNHp/RAF1 RBD-3xFLAG (52-151) (Homo sapiens, UniProt P01116, G12R); experiment: Raf1-KRAS G12R-GppNHP disruption HTRF assay (Biological Example 1); type: binding
T2 construct: Avi-KRAS G12R (1-169)
How it was run: as §1

[3] = biological target: T3, Avi-KRAS G12V (1-169) GppNHp/RAF1 RBD-3xFLAG (52-151) (Homo sapiens, UniProt P01116, G12V); experiment: Raf1-KRAS G12V-GppNHP disruption HTRF assay (Biological Example 1); type: binding
T3 construct: Avi-KRAS G12V (1-169)
How it was run: as §1

[4] = tested on: SW620 cells (KRAS G12V); experiment: Cell-based pERK HTRF assay in SW620 cell (Biological Example 4); conditions: Homo sapiens, SW-620, SW620 (KRAS G12V) cells, pERK HTRF
How it was run: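 SW620 seeded in RPMI/10% FBS, next day dosed 4 h (top 1 μM, half-log, 9 pts, 0.25% DMSO). Lysed, pERK by d2/Eu cryptate HTRF, 4–24 h RT, 615 nm read.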

[5] = tested on: GP2d cells (KRAS G12D); experiment: Cell-based pERK HTRF assay in GP2d cell (Biological Example 2); conditions: GP2d, GP2d (KRAS G12D) cells, pERK HTRF
How it was run: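 Phospho-ERK in lysed cells was detected by HTRF using Eu cryptate and d2 antibodies, read between 4 and 24 h at room temperature. Prior to lysis, KRAS G12D GP2d cells, seeded the day before in DMEM with 10% FBS, were exposed to compounds for 60 min. Compounds were tested as 9-point half-log curves from 1 μM or 100 nM top, with 0.25% DMSO.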

[6] = biological target: T4, Avi-KRAS G12D (1-169) GppNHp/RAF1 RBD-3xFLAG (52-151) (Homo sapiens, UniProt P01116, G12D); experiment: Raf1-KRAS G12D-GppNHP disruption HTRF assay (Biological Example 1); type: binding
T4 construct: Avi-KRAS G12D (1-169)
How it was run: as §1

[7] = KRAS WT, GppNHp-loaded, Table 11
[8] = KRAS G12R, GppNHp-loaded, Table 11
[9] = KRAS G12V, GppNHp-loaded, Table 11
[10] = KRAS G12D, GppNHp-loaded, Table 11
[11] = KRAS WT, GppNHp-loaded, class symbols
[12] = KRAS G12R, GppNHp-loaded, class symbols
[13] = KRAS G12V, GppNHp-loaded, class symbols
[14] = KRAS G12D, GppNHp-loaded, class symbols

T3 sequence (P01116 1-169 isoform P01116-2 G12V): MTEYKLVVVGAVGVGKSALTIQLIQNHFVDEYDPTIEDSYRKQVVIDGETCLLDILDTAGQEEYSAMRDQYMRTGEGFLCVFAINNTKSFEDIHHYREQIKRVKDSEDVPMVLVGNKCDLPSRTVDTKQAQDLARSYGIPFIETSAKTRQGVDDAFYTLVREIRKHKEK
T1 sequence (P01116 1-169 isoform P01116-2): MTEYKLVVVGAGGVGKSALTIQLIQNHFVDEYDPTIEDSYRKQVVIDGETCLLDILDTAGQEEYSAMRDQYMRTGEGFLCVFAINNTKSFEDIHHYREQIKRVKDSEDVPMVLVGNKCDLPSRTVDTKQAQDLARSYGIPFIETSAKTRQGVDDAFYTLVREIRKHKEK
T4 sequence (P01116 1-169 isoform P01116-2 G12D): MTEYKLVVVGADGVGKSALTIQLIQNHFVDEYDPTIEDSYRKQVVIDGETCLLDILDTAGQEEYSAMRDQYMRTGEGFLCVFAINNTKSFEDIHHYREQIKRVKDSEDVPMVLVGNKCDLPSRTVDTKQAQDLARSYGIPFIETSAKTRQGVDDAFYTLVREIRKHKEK
T2 sequence (P01116 1-169 isoform P01116-2 G12R): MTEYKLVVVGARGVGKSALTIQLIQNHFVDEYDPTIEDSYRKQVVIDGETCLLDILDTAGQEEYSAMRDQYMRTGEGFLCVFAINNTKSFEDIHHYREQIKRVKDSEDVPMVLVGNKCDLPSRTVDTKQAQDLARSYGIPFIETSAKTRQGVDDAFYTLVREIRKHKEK

| Compound | IC50 [1, 7] [nM] | IC50 [2, 8] [nM] | IC50 [3, 9] [nM] | IC50 [4] [nM] | IC50 [5] [nM] | IC50 [6, 10] [nM] | IC50 ([1]; KRAS WT-GppNHp/RAF1 RBD HTRF) [nM] | IC50 ([2]; KRAS G12R-GppNHp/RAF1 RBD HTRF) [nM] | IC50 ([3]; KRAS G12V-GppNHp/RAF1 RBD HTRF) [nM] | IC50 ([6]; KRAS G12D-GppNHp/RAF1 RBD HTRF) [nM] | IC50 [1, 11] [nM] | IC50 [2, 12] [nM] | IC50 [3, 13] [nM] | IC50 ([4]; class symbols) [nM] | IC50 ([5]; class symbols) [nM] | IC50 [6, 14] [nM] |
| --- | --- | --- | --- | --- | --- | --- | --- | --- | --- | --- | --- | --- | --- | --- | --- | --- |
| N#Cc1c(N)sc2c(F)ccc(-c3c(C(F)(F)F)cc4c(N5CCCS(=O)(=O)CC5)nc(OC[C@@]56CCCN5C[C@H](F)C6)nc4c3F)c12 [Compound 263] | < 100 | < 100 | 100 to 1000 | < 100 | < 100 | < 100 |  |  |  |  |  |  |  |  |  |  |
| CCN(c1nc(OC[C@@]23CCCN2C[C@H](F)C3)nc2c(F)c(-c3ccc(F)c4sc(N)c(C#N)c34)c(C(F)(F)F)cc12)[C@H]1CCN(C(=O)N2CC3(CC3)C2)C1 (atropisomer, axis not shown) [Compound 793] |  |  |  |  |  |  |  |  |  |  | < 100 | < 100 | < 100 | < 100 | < 100 | < 100 |
| C[C@H]1[C@H](O)CCCN1c1nc(OC[C@@]23CCCN2C[C@H](F)C3)nc2c(F)c(-c3ccc(F)c4sc(N)c(C#N)c34)c(C(F)(F)F)cc12 [Compound 473] |  |  |  | < 100 | < 100 |  | 100 to 1000 | 100 to 1000 | 100 to 1000 | 100 to 1000 |  |  |  |  |  |  |
| CCN(c1nc(OC[C@@]23CCCN2C[C@H](F)C3)nc2c(F)c(-c3ccc(F)c4sc(N)c(C#N)c34)c(C(F)(F)F)cc12)[C@H]1C[C@@H](COC)N(C(=O)C2CC2)C1 (atropisomer, axis not shown) [Compound 650] |  |  |  |  |  |  |  |  |  |  | 100 to 1000 | 100 to 1000 | 100 to 1000 | < 100 | < 100 | 100 to 1000 |
| CCN(c1nc(OC[C@@]23CCCN2C[C@H](F)C3)nc2c(F)c(-c3ccc(F)c4sc(N)c(C#N)c34)c(C(F)(F)F)cc12)[C@H]1CCN(C(=O)O[C@H]2CCOC2)[C@@H]1C (atropisomer, axis not shown) [Compound 810] |  |  |  |  |  |  |  |  |  |  | < 100 | < 100 | < 100 | < 100 | < 100 | < 100 |

Other lines, results leading:

| IC50 [1, 7] [nM] | IC50 [2, 8] [nM] | IC50 [3, 9] [nM] | IC50 [4] [nM] | IC50 [5] [nM] | IC50 [6, 10] [nM] | IC50 ([1]; KRAS WT-GppNHp/RAF1 RBD HTRF) [nM] | IC50 ([2]; KRAS G12R-GppNHp/RAF1 RBD HTRF) [nM] | IC50 ([3]; KRAS G12V-GppNHp/RAF1 RBD HTRF) [nM] | IC50 ([6]; KRAS G12D-GppNHp/RAF1 RBD HTRF) [nM] | IC50 [1, 11] [nM] | IC50 [2, 12] [nM] | IC50 [3, 13] [nM] | IC50 ([4]; class symbols) [nM] | IC50 ([5]; class symbols) [nM] | IC50 [6, 14] [nM] | Compound |
| --- | --- | --- | --- | --- | --- | --- | --- | --- | --- | --- | --- | --- | --- | --- | --- | --- |
|  |  |  | 100 to 1000 | 100 to 1000 |  | 1000 to 10000 | 1000 to 10000 | 1000 to 10000 | 1000 to 10000 |  |  |  |  |  |  | C[C@@H]1[C@H](N(C)c2nc(OC[C@@]34CCCN3C[C@H](F)C4)nc3c(F)c(-c4ccc(F)c5sc(N)c(C#N)c45)c(Cl)cc23)CCN1C(=O)C1(F)CC1 [Compound 422] |
| 100 to 1000 | 100 to 1000 | 100 to 1000 | < 100 | < 100 | 100 to 1000 |  |  |  |  |  |  |  |  |  |  | CN(C[C@@H](F)CO)c1nc(OC[C@@]23CCCN2C[C@H](F)C3)nc2c(F)c(-c3ccc(F)c4sc(N)c(C#N)c34)c(C(F)(F)F)cc12 [Compound 218] |
|  |  |  |  |  |  |  |  |  |  | 100 to 1000 | 100 to 1000 | 100 to 1000 | < 100 | < 100 | 100 to 1000 | CCN(c1nc(OC[C@@]23CCCN2C[C@H](F)C3)nc2c(F)c(-c3ccc(F)c4sc(N)c(C#N)c34)c(C(F)(F)F)cc12)[C@H]1C[C@@H](C)N(C(=O)N2CC(OC)C2)C1 (atropisomer, axis not shown) [Compound 734] |
|  |  |  | < 100 | < 100 |  | 100 to 1000 | 100 to 1000 | 100 to 1000 | 100 to 1000 |  |  |  |  |  |  | CNC(=O)N1CC[C@@H](N(C)c2nc(OC[C@@]34CCCN3C[C@H](F)C4)nc3c(F)c(-c4ccc(F)c5sc(N)c(C#N)c45)c(C(F)(F)F)cc23)[C@H]1C [Compound 427] |
|  |  |  |  |  |  |  |  |  |  | 100 to 1000 | 100 to 1000 | 100 to 1000 | < 100 | < 100 | < 100 | COC1CN(C(=O)N2CC[C@H](N(c3nc(OC[C@@]45CCCN4C[C@H](F)C5)nc4c(F)c(-c5ccc(F)c6sc(N)c(C#N)c56)c(C(F)(F)F)cc34)C3CC3)C2)C1 (atropisomer, axis not shown) [Compound 801] |
| > 10000 | > 10000 | > 10000 | 100 to 1000 | 100 to 1000 | 1000 to 10000 |  |  |  |  |  |  |  |  |  |  | CC(=O)N1CC[C@H](N(C)c2nc(OC[C@@H]3CC4(CC4)CN3C)nc3c(F)c(-c4ccc(F)c5sc(N)c(C#N)c45)c(C(F)(F)F)cc23)[C@@H]1C [Compound 227] |
